Data from paper PMC9051593, “Glucagonlike Peptide-1 Receptor Imaging in Individuals with Type 2 Diabetes” (Journal of Nuclear Medicine, 2022).
Like-named read-outs stand apart in the source and are kept apart here. One block for each substance: values may come before it.

How the values were obtained:
[1] = design: species or system human; conditions: in vivo; for Plasma-to-blood ratio: human, iv, 0.5 MBq/kg
Experimental: Dynamic PET was initiated at administration and continued for 60 min. Blood sampling for glucose was performed before and during the scan as a safety precaution, as exendin4 can stimulate insulin secretion at pharmacologic doses. For 3 individuals, arterial sampling was performed at 5, 30, and 60 min after ^68Ga-exendin4 administration to measure the radioactivity in whole blood and plasma and to determine the metabolic stability of the tracer (the methods are shown in the supplemental materials, available at http://jnm.snmjournals.org) (17). Abdominal tissues of interest, including pancreas (target tissue), aorta (input signal), kidney (excretion), and spleen and erector spinae muscle (negative reference tissues) were manually segmented on coregistered PET/CT images using […] software, version 2.9 (Turku PET Center). The aorta was delineated by segmenting single voxels fully within the lumen of the descending aorta. The arterial plasma image-derived input function was generated by correcting the aorta signal for plasma-to-whole-blood partitioning and for the percentage of intact ^68Ga-exendin4 during the scan (based on a population estimate).

GLP1R [2] = conditions: in words, cited from earlier work
Experimental: Exendin4 is a synthetic peptide that binds to GLP1R with nanomolar affinity and high specificity ([4]). […] In the absence of suitable antagonists, agonists such as exendin4 can be used as PET tracers, but care must be taken to avoid unwanted pharmacologic effects. […] Doses of around 0.5 µg/kg elicit up to 50% blocking of the signal.

GLP1R [3] = conditions: in words; cited from earlier work
Experimental: In the absence of suitable antagonists, agonists such as exendin4 can be used as PET tracers, but care must be taken to avoid unwanted pharmacologic effects. […] Doses of around 0.5 µg/kg elicit up to 50% blocking of the signal.

GLP1R [4] = target: T1, GLP1R (Macaca fascicularis, UniProt F8V479); test: 68Ga-exendin4 PET dose escalation (self-blocking) study in NHP pancreas, Logan Vt; type: in vivo, cynomolgus NHPs; conditions: Vt of 68Ga-exendin4 vs coinjected unlabeled precursor peptide dose, 12 scans, estimated
T1 construct: from tissue; host or cells: pancreas of living cynomolgus monkeys (in vivo PET)
T1 sequence (F8V479 24-463): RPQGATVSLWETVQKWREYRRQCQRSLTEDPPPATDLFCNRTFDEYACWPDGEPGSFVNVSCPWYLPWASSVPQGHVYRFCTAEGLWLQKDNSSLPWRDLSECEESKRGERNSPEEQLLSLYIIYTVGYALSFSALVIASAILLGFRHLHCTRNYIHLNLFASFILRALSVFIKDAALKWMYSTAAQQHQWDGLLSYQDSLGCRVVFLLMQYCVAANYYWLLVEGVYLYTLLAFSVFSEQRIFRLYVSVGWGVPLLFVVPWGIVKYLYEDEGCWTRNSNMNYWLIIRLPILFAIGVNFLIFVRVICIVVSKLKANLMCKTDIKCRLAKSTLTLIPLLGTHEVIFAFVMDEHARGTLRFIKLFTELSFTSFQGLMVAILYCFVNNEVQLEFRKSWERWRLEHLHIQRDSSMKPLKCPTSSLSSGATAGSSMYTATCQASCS
Experimental: A ^68Ga-exendin4 PET/CT imaging study on healthy cynomolgus NHPs was in part reported and described in detail previously ([5]). Briefly, NHPs were scanned by ^68Ga-exendin4 PET using a dose escalation study design in which several examinations were performed, several hours apart, over the course of one or several experimental days. Each subsequent scan entailed a higher peptide mass and radioactive dose to minimize influence from the preceding scan (Table 1). The resulting dataset enabled analysis of the self-blocking effect of the increasing amounts of coinjected unlabeled exendin4 precursor peptide.
Previously, only the simplified SUV analysis of 3 of the NHPs (8 scans) was reported ([5]). In preparation for the design of the clinical study, to better understand the peptide doses at which self-blocking starts to occur, we reanalyzed the dynamic NHP data from all 12 scans by graphical analysis using an image-derived blood plasma input.
Pancreas and other tissues of interest (such as spleen as a negative reference tissue) were delineated using PMOD, version 4.0 (PMOD Technologies). The PET signal for each tissue and time frame was corrected for the injected amount, and the image-derived input function was extracted by segmenting voxels fully within the lumen of the descending aorta as identified on early PET frames and coregistered CT projections. […]

GLP1R in the pancreas = target: T2, GLP1R in the pancreas (Homo sapiens, UniProt P43220); type: in vivo; conditions: humans with T2D, peptide dose less than 0.2 µg/kg; no negative correlation between peptide mass dose and net Ki
T2 construct: underwent PET/CT scanning for GLP1R availability in the pancreas (^68Ga-exendin4); from tissue; host or cells: pancreas of living individuals with type 2 diabetes (in vivo PET/CT)
T2 sequence (P43220 24-463): as the sequence (F8V479 24-463) above, with N112S, S120F, G202S, V205L, F237L, R241W, V249I counted along it
Experimental: The PET assessments were performed 3 h after a standardized meal followed by fasting, to minimize the variability in GLP1 levels at the time of scanning. The individuals were examined over the abdomen with a Discovery MI PET/CT scanner (20-cm field of view; GE Healthcare). Low-dose CT was performed for attenuation correction and anatomic coregistration of PET images. The dose of the CT scan was limited by dosimetry considerations, given that each individual underwent up to 4 PET/CT examinations over the entire clinical study. A 0.5 MBq/kg target dose of ^68Ga-exendin4 (0.46 ± 0.03 MBq/kg, corresponding to 0.14 ± 0.04 μg of peptide per kilogram) was administered intravenously as a bolus. The amount of administered ^68Ga-exendin4 was based primarily on limiting the associated dose of DO3A-VS-exendin4 precursor peptide to below 0.2 μg/kg. This limit was imposed to minimize any self-blocking, and the cutoff was determined from the NHP dose escalation studies. Dynamic PET was initiated at administration and continued for 60 min. […] For 3 individuals, arterial sampling was performed at 5, 30, and 60 min after ^68Ga-exendin4 administration to measure the radioactivity in whole blood and plasma and to determine the metabolic stability of the tracer (the methods are shown in the supplemental materials, available at http://jnm.snmjournals.org) (17). […]

Substance: ^68Ga-DO3A-VS-exendin4 [^68Ga-exendin4]
Plasma-to-blood ratio ([1]; 5 min): 1.76 ± 0.06 1/1
Plasma-to-blood ratio ([1]; 0.5 h): 1.80 ± 0.05 1/1
Plasma-to-blood ratio ([1]; 1 h): 1.79 ± 0.05 1/1
plasma partitioning [1]: ≈ 1.8
affinity for GLP1R (GLP1R [2]; radiolabeled tracer): nanomolar range

Substance: exendin4 [reference compound]
affinity for GLP1R (GLP1R [2]): nanomolar
GLP1R agonist potency (GLP1R [3]): subnanomolar

dose inducing a 50% decrease in binding (in vivo half-maximal inhibitory concentration) (GLP1R [4]): approximately 0.45 µg/kg
self-blocking (GLP1R in the pancreas): negligible
Substance: DO3A-VS-exendin4
